According to patent US20040254175A1, “Derivatives of phenoxy-n-'4-(isothiazolindin-1,1-dioxid-2yl)phenyl!-valerian-acid amide and other compounds as inhibitors of the coagulation factor xa in the treatment of thromboembolic diseases and tumors” (priority 2001, published 2004):
Where a name gives a salt, the structure may show the parent alone.

Legend:
TF/FVIIa = TF/FVIIa (Homo sapiens, UniProt P08709); assay: Inhibition of TF/factor VIIa (TF/FVIIa-IC50)
FXa = FXa (Homo sapiens, UniProt P00742); assay: Inhibition of factor Xa (FXa-IC50)
Chain of FXa (P00742 235-488 limits assumed): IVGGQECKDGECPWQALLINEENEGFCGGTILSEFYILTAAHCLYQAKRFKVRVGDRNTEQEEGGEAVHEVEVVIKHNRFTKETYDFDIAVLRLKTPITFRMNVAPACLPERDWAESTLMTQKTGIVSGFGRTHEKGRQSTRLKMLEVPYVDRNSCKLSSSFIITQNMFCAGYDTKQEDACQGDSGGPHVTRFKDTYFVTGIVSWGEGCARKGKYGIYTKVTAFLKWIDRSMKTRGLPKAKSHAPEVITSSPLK
Chain of FXa (P00742 41-179 partner limits assumed): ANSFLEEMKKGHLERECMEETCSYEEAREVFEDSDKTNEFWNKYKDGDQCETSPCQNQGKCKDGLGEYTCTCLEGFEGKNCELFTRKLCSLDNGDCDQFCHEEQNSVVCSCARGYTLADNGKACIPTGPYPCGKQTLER
Source text: The inhibition of factor Xa by the compounds according to the invention and the measurement of the anticoagulant and antithrombotic activity can be determined by conventional in-vitro or in-vivo methods.

Chain of TF/FVIIa (P08709 213-466 limits assumed): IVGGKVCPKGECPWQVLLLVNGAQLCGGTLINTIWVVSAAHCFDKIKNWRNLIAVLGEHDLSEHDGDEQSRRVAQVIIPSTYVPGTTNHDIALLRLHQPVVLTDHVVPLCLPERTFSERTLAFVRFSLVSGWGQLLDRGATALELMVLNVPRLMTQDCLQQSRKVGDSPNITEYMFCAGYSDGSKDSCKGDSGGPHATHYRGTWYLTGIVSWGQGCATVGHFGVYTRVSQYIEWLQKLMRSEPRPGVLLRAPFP
Chain of TF/FVIIa (P08709 61-212 partner limits assumed): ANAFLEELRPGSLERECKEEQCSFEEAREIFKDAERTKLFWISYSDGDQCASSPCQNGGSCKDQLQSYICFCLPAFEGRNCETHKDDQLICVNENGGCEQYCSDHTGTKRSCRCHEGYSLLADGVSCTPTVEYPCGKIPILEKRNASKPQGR
Chain of TF/FVIIa (P13726 33-295 partner): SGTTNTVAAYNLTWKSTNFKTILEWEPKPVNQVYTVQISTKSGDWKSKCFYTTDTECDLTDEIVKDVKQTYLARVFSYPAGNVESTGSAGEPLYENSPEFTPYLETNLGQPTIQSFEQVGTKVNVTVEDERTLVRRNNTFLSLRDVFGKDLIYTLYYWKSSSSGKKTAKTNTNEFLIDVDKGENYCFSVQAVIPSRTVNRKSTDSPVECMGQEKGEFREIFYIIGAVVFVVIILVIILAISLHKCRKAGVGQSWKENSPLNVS

SMILES	IC50 (TF/FVIIa) [nM]	IC50 (FXa) [nM]
CCCC(Oc1cccc(C(=N)N)c1)C(=O)Nc1ccc(N2CCCS2(=O)=O)cc1 (stereo not shown) [AA, 2-(3-amidinophenoxy)-N-[4-(1,1-dioxoisothiazolidin-2-yl)phenyl]valeramide, acetate]	450	350
Cc1cc(NC(=O)C(Nc2cccc(CN)c2)c2ccccc2)ccc1N1CCCS1(=O)=O (stereo not shown) [BB, 2-(3-aminomethylphenylamino)-N-[4-(1,1-dioxoisothiazolidin-2-yl)-3-methylphenyl]-2-phenylacetamide, hydrochloride]	870	490
